Where “and” joins values, the source holds several entries; their conditions need not be identical. Equal values may be shown once. Numbers after ± are expanded uncertainties.
Conditions: Liquid, Transpiration method

CN1CCC[C@H]1c1cccnc1 [(-)-3-(N-methylpyrrolidino)pyridine]
Conditions	vapor or sublimation pressure
288.7 K	0.002398 ± 0.00015 kPa
293.8 K	0.003508 ± 0.00023 kPa
298.5 K	0.005519 ± 0.00039 kPa
303.3 K	0.008212 ± 0.00056 kPa
308.2 K	0.01232 ± 0.00082 kPa and 0.01187 ± 0.00079 kPa
313.1 K	0.01822 ± 0.0012 kPa
318.1 K	0.02642 ± 0.0017 kPa
323 K	0.03648 ± 0.0023 kPa
327.9 K	0.05164 ± 0.0033 kPa
333.2 K	0.07337 ± 0.0046 kPa
335.7 K	0.08301 ± 0.0052 kPa
338.2 K	0.1012 ± 0.0063 kPa
340.7 K	0.1124 ± 0.0071 kPa
343.1 K	0.1387 ± 0.0088 kPa
345.6 K	0.1639 ± 0.01 kPa
348.2 K	0.2061 ± 0.013 kPa
350.6 K	0.222 ± 0.014 kPa
353.2 K	0.2733 ± 0.017 kPa
358.1 K	0.3726 ± 0.023 kPa
363.2 K	0.5077 ± 0.032 kPa
368.1 K	0.6692 ± 0.042 kPa
373.1 K	0.8635 ± 0.053 kPa

Reference: the NIST ThermoML archive (doi:10.1016/j.jct.2018.01.014)
